Results on 18 compounds are retold here after the supplement of paper PMC11368000.

The first assay concerns 1083 (donor line of iPSC-derived cardiomyocytes). Description: POD (EC10) for decrease in total cell number (cytotoxicity) vs vehicle; higher = less potent (higher point of departure). Conditions: exposure time: 90 min. The protocol:
(§1)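 Human iPSC-derived cardiomyocytes from 16 donors were exposed for 90 min at 37 °C to each PFAS at 0.1, 1, 10 and 100 µM in 0.5% DMSO, 384-well plates. Kinetic Ca2+ flux (FLIPR) and Hoechst nuclei counts were normalised to vehicle wells and fitted with a hierarchical Bayesian Hill model to give donor-specific PODs: EC05 for beat-rate increase or decrease and for decay-to-rise ratio increase (QT proxy), EC95 for peak-frequency loss (asystole), EC10 for total cell number loss. 0.03 µM is the lower bound.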
Consider `O=C(O)CCC(F)(F)C(F)(F)C(F)(F)C(F)(F)C(F)(F)C(F)(F)C(F)(F)F` [3-Perfluoroheptylpropanoic_acid], for which the POD vs vehicle was > 100 µM.

Turning to `OCCC(F)(F)C(F)(F)C(F)(F)C(F)(F)C(F)(F)C(F)(F)F` [6:2 Fluorotelomer alcohol], the POD vs vehicle was > 100 µM.

In the case of `O=S(=O)(O)CCC(F)(F)C(F)(F)C(F)(F)C(F)(F)C(F)(F)C(F)(F)F` [6:2 Fluorotelomer sulfonic acid], the POD vs vehicle is > 100 µM.

Turning to `OCCC(F)(F)C(F)(F)C(F)(F)C(F)(F)C(F)(F)C(F)(F)C(F)(F)C(F)(F)F` [8:2 Fluorotelomer alcohol], the POD vs vehicle is > 100 µM.

With `O=S(=O)(O)CCC(F)(F)C(F)(F)C(F)(F)C(F)(F)C(F)(F)C(F)(F)C(F)(F)C(F)(F)F` [8:2 Fluorotelomer sulfonic acid], the POD vs vehicle was > 100 µM.

For the compound `O=C(O)C(F)(F)C(F)(F)C(F)(F)C(F)(F)C(F)(F)C(F)(F)C(F)(F)C(F)(F)Cl` [9-Chloro-perfluorononanoic_acid], the POD vs vehicle is > 100 µM.

As for `O=P(O)(O)CCC(F)(F)C(F)(F)C(F)(F)C(F)(F)C(F)(F)C(F)(F)C(F)(F)C(F)(F)F` [((Perfluorooctyl)ethyl)phosphonic_acid], the POD vs vehicle was > 100 µM.

As for `OCC(F)(F)C(F)(F)C(F)(F)C(F)(F)C(F)(F)C(F)F` [Dodecafluoroheptanol], the POD vs vehicle is > 100 µM.

For `COC(=O)C(F)(F)C(F)(F)OC(F)(C(F)(F)F)C(F)(F)OC(F)=C(F)F` (stereo not given) [Methyl_perfluoro(3-(1-ethenyloxypropan-2-yloxy)propanoate)], the POD vs vehicle is > 100 µM.

Consider `CN(CCO)S(=O)(=O)C(F)(F)C(F)(F)C(F)(F)C(F)(F)C(F)(F)C(F)(F)C(F)(F)C(F)(F)F` [N-Methyl-N-(2-hydroxyethyl)perfluorooctanesulfonamide], for which the POD vs vehicle is > 100 µM.

For `NC(=O)C(F)(F)C(F)(F)C(F)(F)C(F)(F)C(N)=O` [Octafluoroadipamide], the POD vs vehicle was > 100 µM.

On to `O=C(O)C(F)(F)C(F)(F)C(F)(F)OC(F)(F)F` [Perfluoro(4-methoxybutanoic)_acid], for which the POD vs vehicle is > 100 µM.

For `O=C(O)C(F)(F)C(F)(F)OC(F)(F)F` [Perfluoro-3-methoxypropanoic_acid], the POD vs vehicle was > 100 µM.

Turning to `O=C(O)C(F)(F)C(F)(F)C(F)(F)F` [Perfluorobutanoic_acid], the POD vs vehicle was > 100 µM.

On to `O=C(O)C(F)(F)C(F)(F)C(F)(F)C(F)(F)C(F)(F)C(F)(F)C(F)(F)C(F)(F)C(F)(F)F` [Perfluorodecanoic_acid], for which the POD vs vehicle was > 100 µM.

Take `NS(=O)(=O)C(F)(F)C(F)(F)C(F)(F)C(F)(F)C(F)(F)C(F)(F)F` [Perfluorohexanesulfonamide]: the POD vs vehicle is > 100 µM.

Regarding `O=S(=O)(O)C(F)(F)C(F)(F)C(F)(F)C(F)(F)C(F)(F)C(F)(F)F` [Perfluorohexanesulfonic_acid], the POD vs vehicle was > 100 µM.

Consider `O=C(O)C(F)(F)C(F)(F)C(F)(F)C(F)(F)C(F)(F)F` [Perfluorohexanoic_acid], for which the POD vs vehicle was > 100 µM.

In another assay the test system is 1118 (donor line of iPSC-derived cardiomyocytes). Described as above. Conditions: exposure time: 90 min. The method, then: as §1
In the case of `O=C(O)CCC(F)(F)C(F)(F)C(F)(F)C(F)(F)C(F)(F)C(F)(F)C(F)(F)F` [3-Perfluoroheptylpropanoic_acid], the POD vs vehicle is > 100 µM.

`OCCC(F)(F)C(F)(F)C(F)(F)C(F)(F)C(F)(F)C(F)(F)F` [6:2 Fluorotelomer alcohol]: the POD vs vehicle was > 100 µM.

In the case of `O=S(=O)(O)CCC(F)(F)C(F)(F)C(F)(F)C(F)(F)C(F)(F)C(F)(F)F` [6:2 Fluorotelomer sulfonic acid], the POD vs vehicle was > 100 µM.

Regarding `OCCC(F)(F)C(F)(F)C(F)(F)C(F)(F)C(F)(F)C(F)(F)C(F)(F)C(F)(F)F` [8:2 Fluorotelomer alcohol], the POD vs vehicle is > 100 µM.

Turning to `O=S(=O)(O)CCC(F)(F)C(F)(F)C(F)(F)C(F)(F)C(F)(F)C(F)(F)C(F)(F)C(F)(F)F` [8:2 Fluorotelomer sulfonic acid], the POD vs vehicle was > 100 µM.

Consider `O=C(O)C(F)(F)C(F)(F)C(F)(F)C(F)(F)C(F)(F)C(F)(F)C(F)(F)C(F)(F)Cl` [9-Chloro-perfluorononanoic_acid], for which the POD vs vehicle was > 100 µM.

With `O=P(O)(O)CCC(F)(F)C(F)(F)C(F)(F)C(F)(F)C(F)(F)C(F)(F)C(F)(F)C(F)(F)F` [((Perfluorooctyl)ethyl)phosphonic_acid], the POD vs vehicle is > 100 µM.

In turn, `OCC(F)(F)C(F)(F)C(F)(F)C(F)(F)C(F)(F)C(F)F` [Dodecafluoroheptanol] showed a POD vs vehicle of 95.5 µM.

Consider `COC(=O)C(F)(F)C(F)(F)OC(F)(C(F)(F)F)C(F)(F)OC(F)=C(F)F` (stereo not given) [Methyl_perfluoro(3-(1-ethenyloxypropan-2-yloxy)propanoate)], for which the POD vs vehicle is > 100 µM.

As to `CN(CCO)S(=O)(=O)C(F)(F)C(F)(F)C(F)(F)C(F)(F)C(F)(F)C(F)(F)C(F)(F)C(F)(F)F` [N-Methyl-N-(2-hydroxyethyl)perfluorooctanesulfonamide], the POD vs vehicle was > 100 µM.

For the compound `NC(=O)C(F)(F)C(F)(F)C(F)(F)C(F)(F)C(N)=O` [Octafluoroadipamide], the POD vs vehicle is > 100 µM.

In the case of `O=C(O)C(F)(F)C(F)(F)C(F)(F)OC(F)(F)F` [Perfluoro(4-methoxybutanoic)_acid], the POD vs vehicle is > 100 µM.

As for `O=C(O)C(F)(F)C(F)(F)OC(F)(F)F` [Perfluoro-3-methoxypropanoic_acid], the POD vs vehicle was > 100 µM.

As for `O=C(O)C(F)(F)C(F)(F)C(F)(F)F` [Perfluorobutanoic_acid], the POD vs vehicle is > 100 µM.

Regarding `O=C(O)C(F)(F)C(F)(F)C(F)(F)C(F)(F)C(F)(F)C(F)(F)C(F)(F)C(F)(F)C(F)(F)F` [Perfluorodecanoic_acid], the POD vs vehicle is > 100 µM.

In the case of `NS(=O)(=O)C(F)(F)C(F)(F)C(F)(F)C(F)(F)C(F)(F)C(F)(F)F` [Perfluorohexanesulfonamide], the POD vs vehicle was 14.9 µM.

On to `O=S(=O)(O)C(F)(F)C(F)(F)C(F)(F)C(F)(F)C(F)(F)C(F)(F)F` [Perfluorohexanesulfonic_acid], for which the POD vs vehicle is > 100 µM.

For the compound `O=C(O)C(F)(F)C(F)(F)C(F)(F)C(F)(F)C(F)(F)F` [Perfluorohexanoic_acid], the POD vs vehicle was > 100 µM.

The test system of the next assay is 11235 (donor line of iPSC-derived cardiomyocytes). The assay is described as above. To be noted: exposure time: 90 min. The protocol:
as §1
As to `O=C(O)CCC(F)(F)C(F)(F)C(F)(F)C(F)(F)C(F)(F)C(F)(F)C(F)(F)F` [3-Perfluoroheptylpropanoic_acid], the POD vs vehicle was > 100 µM.

With `OCCC(F)(F)C(F)(F)C(F)(F)C(F)(F)C(F)(F)C(F)(F)F` [6:2 Fluorotelomer alcohol], the POD vs vehicle is > 100 µM.

Turning to `O=S(=O)(O)CCC(F)(F)C(F)(F)C(F)(F)C(F)(F)C(F)(F)C(F)(F)F` [6:2 Fluorotelomer sulfonic acid], the POD vs vehicle was > 100 µM.

Take `OCCC(F)(F)C(F)(F)C(F)(F)C(F)(F)C(F)(F)C(F)(F)C(F)(F)C(F)(F)F` [8:2 Fluorotelomer alcohol]: the POD vs vehicle is > 100 µM.

Regarding `O=S(=O)(O)CCC(F)(F)C(F)(F)C(F)(F)C(F)(F)C(F)(F)C(F)(F)C(F)(F)C(F)(F)F` [8:2 Fluorotelomer sulfonic acid], the POD vs vehicle was > 100 µM.

With `O=C(O)C(F)(F)C(F)(F)C(F)(F)C(F)(F)C(F)(F)C(F)(F)C(F)(F)C(F)(F)Cl` [9-Chloro-perfluorononanoic_acid], the POD vs vehicle is > 100 µM.

Regarding `O=P(O)(O)CCC(F)(F)C(F)(F)C(F)(F)C(F)(F)C(F)(F)C(F)(F)C(F)(F)C(F)(F)F` [((Perfluorooctyl)ethyl)phosphonic_acid], the POD vs vehicle is > 100 µM.

On to `OCC(F)(F)C(F)(F)C(F)(F)C(F)(F)C(F)(F)C(F)F` [Dodecafluoroheptanol], for which the POD vs vehicle stood at 85.3 µM.

For `COC(=O)C(F)(F)C(F)(F)OC(F)(C(F)(F)F)C(F)(F)OC(F)=C(F)F` (stereo not given) [Methyl_perfluoro(3-(1-ethenyloxypropan-2-yloxy)propanoate)], the POD vs vehicle was > 100 µM.
